The source of these data is patent US20230312550A1, “N-(2-(4-CYANOTHIAZOLIDIN-3-YL)-2-OXOETHYL)-QUINOLINE-4-CARBOXAMIDES” (AstraZeneca AB, priority 2020, published 2023).

The nature of data set [1]: Metabolic stability in human liver microsomes (HLM). The following applies: for microsomal CLint: human.
Experimental: Metabolic stability in HLM was measured as described in J Comput Aided Mol Des 2015, 29, 795.
For data set [2], the target named is Prolyl endopeptidase, Prolyl Oligopeptidase (hPREP) (Homo sapiens (Human), UniProt P48147). Description: hPrep inhibition assay. As to conditions: hPREP 0.6 nM, Z-Gly-Pro-amino-methylcoumarin 50 μM; read-out: PREP IC50. It is filed as biochemical. In a few lines: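 Recombinant human PREP at 0.6 nM final with Z-Gly-Pro-AMC substrate at 50 μM final in Tris-HCl pH 7.5, NaCl, Triton X-100, glutathione; 15 min rt preincubation then 20 min rt reaction in dark. AMC fluorescence (ex 340/em 460 nm); IC50 from one-site dose-response fit of % inhibition.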
Chain of Prolyl endopeptidase, Prolyl Oligopeptidase (hPREP) (P48147 whole entry): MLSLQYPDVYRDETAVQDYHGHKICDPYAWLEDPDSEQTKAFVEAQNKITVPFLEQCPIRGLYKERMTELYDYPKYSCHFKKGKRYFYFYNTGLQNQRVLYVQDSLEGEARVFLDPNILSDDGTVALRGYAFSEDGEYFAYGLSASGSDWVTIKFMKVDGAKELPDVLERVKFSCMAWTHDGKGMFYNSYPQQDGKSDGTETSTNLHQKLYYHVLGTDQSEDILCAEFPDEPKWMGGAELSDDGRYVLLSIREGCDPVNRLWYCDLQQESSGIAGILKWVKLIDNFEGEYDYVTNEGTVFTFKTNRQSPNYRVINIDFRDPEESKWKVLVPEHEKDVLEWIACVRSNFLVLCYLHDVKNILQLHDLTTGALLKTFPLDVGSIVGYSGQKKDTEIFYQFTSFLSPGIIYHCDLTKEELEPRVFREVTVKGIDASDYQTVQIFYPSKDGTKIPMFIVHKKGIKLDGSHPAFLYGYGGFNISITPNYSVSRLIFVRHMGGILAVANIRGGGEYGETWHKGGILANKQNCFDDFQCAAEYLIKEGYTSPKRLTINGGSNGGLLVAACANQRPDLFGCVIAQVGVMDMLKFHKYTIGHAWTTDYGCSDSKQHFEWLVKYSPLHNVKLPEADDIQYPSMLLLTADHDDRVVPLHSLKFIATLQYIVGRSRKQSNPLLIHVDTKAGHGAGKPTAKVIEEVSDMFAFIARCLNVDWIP

The target of data set [3] is human Fibroblast activation protein alpha (hFAP) (Homo sapiens (Human), UniProt Q12884). Nature of the data set: hFAP inhibition assay (tight binders). Further: hFAP 2.4 pM. It is filed as biochemical. The following applies: Ala-Pro-AMC 20 μM, n = 1 or geometric mean n = 2-6. The method, then:
The plates were read on a PHERAstar® reader with excitation 340 nm and emission 460 nm. Data were analyzed in Genedata Screener®. IC50 values were determined by plotting % inhibition versus log compound concentration and using a one site dose response model.

The nature of data set [4]: Metabolic stability in rat hepatocytes (rHep). The following applies: n = 1 or geometric mean of n = 2-3.
In another data set the target is hFAP (M39-A757) (Homo sapiens (Human), UniProt Q12884). Description: hFAP binding assay (surface plasmon resonance). As to conditions: SPR, 20° C.; for hFAP Binding assay k(off) / hFAP Binding assay k(on): single cycle kinetics; for Kd: n = 1 or geometric mean n = 2-4. In general terms: SPR reads the build-up and loss of mass on a sensor chip optically.
Chain of hFAP (M39-A757) (Q12884 39-757): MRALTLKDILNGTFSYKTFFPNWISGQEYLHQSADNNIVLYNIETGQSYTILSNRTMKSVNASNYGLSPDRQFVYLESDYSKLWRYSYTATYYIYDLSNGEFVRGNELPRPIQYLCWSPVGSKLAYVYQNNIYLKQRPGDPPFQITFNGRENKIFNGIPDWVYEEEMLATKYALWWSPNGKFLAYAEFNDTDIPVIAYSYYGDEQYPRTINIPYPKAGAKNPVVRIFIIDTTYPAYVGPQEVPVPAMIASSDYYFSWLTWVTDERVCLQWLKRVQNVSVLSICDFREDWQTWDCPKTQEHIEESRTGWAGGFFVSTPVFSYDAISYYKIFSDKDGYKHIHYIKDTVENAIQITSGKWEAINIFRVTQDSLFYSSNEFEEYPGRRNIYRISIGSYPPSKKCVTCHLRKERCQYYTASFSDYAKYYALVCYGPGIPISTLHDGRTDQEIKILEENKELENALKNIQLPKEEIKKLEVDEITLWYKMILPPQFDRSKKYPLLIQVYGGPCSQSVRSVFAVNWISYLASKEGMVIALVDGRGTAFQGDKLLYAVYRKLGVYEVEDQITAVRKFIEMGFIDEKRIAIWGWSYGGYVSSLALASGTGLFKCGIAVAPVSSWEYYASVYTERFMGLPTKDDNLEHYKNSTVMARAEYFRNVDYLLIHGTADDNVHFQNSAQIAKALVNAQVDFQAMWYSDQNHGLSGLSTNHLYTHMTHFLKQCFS
[5] abbreviates: HLM CLint, n = 1 or average of n = 2-3.
[6] abbreviates: kinetic from dmso stock, Solubility, kinetic solubility, n = 1 or average of n = 2-3.

Molecules are shown by their SMILES. In brackets after ≈: the same amount, converted by molar mass.

Chain of human Fibroblast activation protein alpha (hFAP) (Q12884 38-760): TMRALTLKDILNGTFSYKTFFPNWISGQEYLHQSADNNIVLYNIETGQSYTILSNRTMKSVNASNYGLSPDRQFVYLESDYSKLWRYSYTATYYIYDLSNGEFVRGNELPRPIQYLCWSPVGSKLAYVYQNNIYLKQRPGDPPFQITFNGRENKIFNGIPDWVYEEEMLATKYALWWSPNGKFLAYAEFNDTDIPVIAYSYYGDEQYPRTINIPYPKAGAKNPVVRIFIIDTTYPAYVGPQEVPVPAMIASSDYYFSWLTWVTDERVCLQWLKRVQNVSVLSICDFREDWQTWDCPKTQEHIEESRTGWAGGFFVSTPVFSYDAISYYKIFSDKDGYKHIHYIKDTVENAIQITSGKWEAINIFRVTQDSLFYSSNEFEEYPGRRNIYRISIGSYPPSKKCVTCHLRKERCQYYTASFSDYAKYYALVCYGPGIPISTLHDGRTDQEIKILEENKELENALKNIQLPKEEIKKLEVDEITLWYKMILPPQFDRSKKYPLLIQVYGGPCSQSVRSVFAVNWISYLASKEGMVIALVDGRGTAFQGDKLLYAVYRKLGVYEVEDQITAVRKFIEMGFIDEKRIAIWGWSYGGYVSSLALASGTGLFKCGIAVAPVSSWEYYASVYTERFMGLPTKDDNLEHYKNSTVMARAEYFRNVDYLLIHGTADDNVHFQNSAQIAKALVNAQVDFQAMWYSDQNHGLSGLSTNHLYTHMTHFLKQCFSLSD
Experimental for Kinetic solubility: Kinetic solubility was measured as described in Comput Aided Mol Des 2015, 29, 795.

In general, microsomal CLint refers to a measure of how fast metabolising enzymes remove a compound, apart from limits set by blood flow. A word on the solubility: it is the concentration that dissolves in the medium under given conditions. Higher therefore signals much dissolved substance. Usually IC50 stands for the concentration at which inhibition is half-maximal. A word on the Kd: it is the concentration at which binding is half-saturated. The compound `Cc1cc(C(F)(F)F)nn1-c1ccc2nccc(C(=O)NCC(=O)N3CSC[C@H]3C#N)c2c1` [Example 116, (R)—N-(2-(4-Cyanothiazolidin-3-yl)-2-oxoethyl)-6-(5-methyl-3-(trifluoromethyl)-1H-pyrazol-1-yl)quinoline-4-carboxamide] registered a microsomal CLint in data set [1] (setting [5]) of 98 µL/min/mg. For the same compound, in “Kinetic solubility” (setting [6]), the concentration in solution (solubility) came to 490 µM (≈ 232 µg/mL). In data set [2], the half-inhibitory concentration (IC50) is 230 nM. For the same compound, the IC50 in data set [3] was 0.16 nM. The “rHep CLint” value in data set [4] is given as 15 μL/min/1E6. At hFAP (M39-A757), the “hFAP Binding assay k(off)” value was determined as 0.0012 s⁻¹, the “hFAP Binding assay k(on)” value stood at 7900000 M⁻¹ s⁻¹ and the Kd worked out at 0.15 nM.

Compound `CC1(C2CC2)CN(c2ccc3nccc(C(=O)NCC(=O)N4CSC[C@H]4C#N)c3c2)C1` [Example 134, (R)—N-(2-(4-Cyanothiazolidin-3-yl)-2-oxoethyl)-6-(3-cyclopropyl-3-methylazetidin-1-yl)quinoline-4-carboxamide] came in with an intrinsic clearance (microsomal CLint) in data set [1] (setting [5]) of 210 µL/min/mg. In addition, the concentration in solution in the data set “Kinetic solubility” (setting [6]) (solubility) was 71 µM (≈ 30.9 µg/mL). The IC50 in data set [2] was 620 nM. Further, the half-inhibitory concentration (IC50) in data set [3] was 0.13 nM. Also, the “rHep CLint” value in data set [4] is recorded as 74 μL/min/1E6. Further, on hFAP (M39-A757), the “hFAP Binding assay k(off)” value was 0.000080 s⁻¹, the “hFAP Binding assay k(on)” value is 620000 M⁻¹ s⁻¹ and the Kd was 0.13 nM.

Compound `N#C[C@@H]1CSCN1C(=O)CNC(=O)c1ccnc2ccc(N3CC(CC(F)F)C3)cc12` [Example 144, (R)—N-(2-(4-Cyanothiazolidin-3-yl)-2-oxoethyl)-6-(3-(2,2-difluoroethyl)-azetidin-1-yl)quinoline-4-carboxamide] came in with an intrinsic clearance (microsomal CLint) in data set [1] (setting [5]) of 14 µL/min/mg. Moreover, the solubility in “Kinetic solubility” (setting [6]) is 18 µM (≈ 8.02 µg/mL). In addition, in data set [2], the IC50 amounted to 460 nM. This compound displayed an IC50 in data set [3] of 0.081 nM. Also, in data set [4], the “rHep CLint” value came to 7 μL/min/1E6. Further, on hFAP (M39-A757), the “hFAP Binding assay k(off)” value turned out to be 0.00051 s⁻¹, the “hFAP Binding assay k(on)” value is 9100000 M⁻¹ s⁻¹ and the Kd worked out at 0.049 nM.

As for `C[C@@H]1CN(c2ccc3nccc(C(=O)NCC(=O)N4CSC[C@H]4C#N)c3c2)C[C@H]1C` (single isomer, unassigned) [Example 226, N-(2-((R)-4-Cyanothiazolidin-3-yl)-2-oxoethyl)-6-((3R*,4R*)-3,4-dimethylpyrrolidin-1-yl)quinoline-4-carboxamide], the “HLM CLint” value in data set [1] (n = 1 or average of n = 2-3) was found to be 94 µL/min/mg. For the same compound, in the data set “Kinetic solubility” (kinetic solubility, n = 1 or average of n = 2-3), the solubility amounted to 4.5 µM (≈ 1.91 µg/mL). In addition, the IC50 is 660 nM in data set [2] and 0.2 nM in data set [3]. Besides, the “rHep CLint” value in data set [4] worked out at 44 μL/min/1E6. Also, the affinity on hFAP (M39-A757), expressed as Kd, was 0.044 nM.

Take `N#C[C@@H]1CSCN1C(=O)CNC(=O)c1ccnc2ccc(N3CC(CCF)C3)cc12` [Example 146, (R)—N-(2-(4-Cyanothiazolidin-3-yl)-2-oxoethyl)-6-(3-(2-fluoroethyl)-azetidin-1-yl)quinoline-4-carboxamide]: the intrinsic metabolic clearance (microsomal CLint) in data set [1] (setting [5]) was 11 µL/min/mg. Also, in the data set “Kinetic solubility” (setting [6]), the concentration in solution (solubility) was 24 µM (≈ 10.3 µg/mL). The IC50 in data set [2] was found to be 450 nM. Moreover, in data set [3], it took 0.15 nM to reach half-maximal inhibition (IC50). In data set [4], the “rHep CLint” value is on record as 4.3 μL/min/1E6. At hFAP (M39-A757), the “hFAP Binding assay k(off)” value was 0.00017 s⁻¹, the “hFAP Binding assay k(on)” value is 1400000 M⁻¹ s⁻¹ and binding was put at a Kd of 0.12 nM.

Turning to `N#C[C@@H]1CSCN1C(=O)CNC(=O)c1ccnc2ccc(N3CC(OC(F)(F)F)C3)cc12` [Example 132, (R)—N-(2-(4-Cyanothiazolidin-3-yl)-2-oxoethyl)-6-(3-(trifluoromethoxy)-azetidin-1-yl)quinoline-4-carboxamide], the microsomal CLint in data set [1] (setting [5]) turned out to be 38 µL/min/mg. The amount in solution in the data set “Kinetic solubility” (setting [6]) (solubility) came to 13 µM (≈ 6.05 µg/mL). For the same compound, the half-maximal inhibitory concentration (IC50) in data set [2] was found to be 3700 nM. In data set [3], this compound yielded an IC50 of 0.41 nM. Also, the “rHep CLint” value in data set [4] is listed as 8.5 μL/min/1E6. For the same compound, on hFAP (M39-A757), the “hFAP Binding assay k(off)” value came to 0.00014 s⁻¹; the “hFAP Binding assay k(on)” value stood at 270000 M⁻¹ s⁻¹; the affinity, expressed as Kd, was 0.52 nM.

On to `N#C[C@@H]1CSCN1C(=O)CNC(=O)c1ccnc2ccc(N3CC4(CC(C(F)(F)F)C4)C3)cc12` [Example 150, (R)—N-(2-(4-Cyanothiazolidin-3-yl)-2-oxoethyl)-6-(6-(trifluoromethyl)-2-azaspiro[3.3]heptan-2-yl)quinoline-4-carboxamide], for which the microsomal CLint in data set [1] came to 49 µL/min/mg. This compound also displayed a solubility in “Kinetic solubility” (kinetic from dmso stock) of 77 µM (≈ 37.7 µg/mL). For the same compound, in data set [2], the IC50 came out at 2000 nM. In data set [3], this compound returned an IC50 of 0.5 nM. Further, in data set [4], the “rHep CLint” value was found to be 5 μL/min/1E6. Further, on hFAP (M39-A757), the “hFAP Binding assay k(off)” value is 0.000043 s⁻¹, the “hFAP Binding assay k(on)” value was 280000 M⁻¹ s⁻¹ and the Kd is 0.16 nM.

As for `N#C[C@@H]1CSCN1C(=O)CNC(=O)c1ccnc2c(Cl)cc(N3CCOCC3)cc12` [Example 180, (R)-8-Chloro-N-(2-(4-cyanothiazolidin-3-yl)-2-oxoethyl)-6-morpholino-quinoline-4-carboxamide], the microsomal CLint in data set [1] (setting [5]) worked out at 110 µL/min/mg. The amount in solution in the data set “Kinetic solubility” (setting [6]) (solubility) came to 170 µM (≈ 75.8 µg/mL). For the same compound, in data set [2], the IC50 came to 590 nM. The IC50 in data set [3] is 0.2 nM. Besides, the “rHep CLint” value in data set [4] was 3 μL/min/1E6. Further, on hFAP (M39-A757), the “hFAP Binding assay k(off)” value was determined as 0.00095 s⁻¹, the “hFAP Binding assay k(on)” value amounted to 560000 M⁻¹ s⁻¹ and the equilibrium dissociation constant (Kd) was 1.3 nM.

For `CCC1(OC)CCN(c2ccc3nccc(C(=O)NCC(=O)N4CSC[C@H]4C#N)c3c2)CC1` [Example 191, (R)—N-(2-(4-Cyanothiazolidin-3-yl)-2-oxoethyl)-6-(4-ethyl-4-methoxy-piperidin-1-yl)quinoline-4-carboxamide], the microsomal CLint in data set [1] (setting [5]) is 94 µL/min/mg. Besides, the solubility in “Kinetic solubility” (setting [6]) was determined as 400 µM (≈ 187 µg/mL). Also, the IC50 in data set [2] was 550 nM. In data set [3], this compound had an IC50 of 0.038 nM. In addition, the “rHep CLint” value in data set [4] is listed as 5.3 μL/min/1E6. Moreover, at hFAP (M39-A757), the “hFAP Binding assay k(off)” value is 0.000033 s⁻¹, the “hFAP Binding assay k(on)” value came to 1500000 M⁻¹ s⁻¹ and binding was put at a Kd of 0.022 nM.

For `N#C[C@@H]1CSCN1C(=O)CNC(=O)c1ccnc2ccc(N3CCOC[C@@H]3C(F)(F)F)cc12` (single isomer, unassigned) [Example 84, N-(2-((R)-4-Cyanothiazolidin-3-yl)-2-oxoethyl)-6-((R*)-3-(trifluoromethyl)-morpholino)quinoline-4-carboxamide], the “HLM CLint” value in data set [1] (n = 1 or average of n = 2-3) is 64 µL/min/mg. In “Kinetic solubility” (setting [6]), the concentration in solution (solubility) came to 940 µM (≈ 451 µg/mL). For the same compound, the IC50 in data set [2] was 710 nM. Besides, half-maximal inhibition in data set [3] (IC50) required 0.074 nM. For the same compound, the “rHep CLint” value in data set [4] worked out at 26 μL/min/1E6. Further, at hFAP (M39-A757), the “hFAP Binding assay k(off)” value worked out at 0.00011 s⁻¹, the “hFAP Binding assay k(on)” value stood at 1200000 M⁻¹ s⁻¹ and the dissociation constant (Kd) turned out to be 0.12 nM.

`N#C[C@@H]1CSCN1C(=O)CNC(=O)c1ccnc2ccc(N3CC(F)(C(F)(F)F)C3)cc12` [Example 143, (R)—N-(2-(4-Cyanothiazolidin-3-yl)-2-oxoethyl)-6-(3-fluoro-3-(trifluoromethyl)azetidin-1-yl)quinoline-4-carboxamide] returned a microsomal CLint in data set [1] (setting [5]) of 40 µL/min/mg. In “Kinetic solubility” (setting [6]), this compound showed a solubility of 33 µM (≈ 15.4 µg/mL). Moreover, the IC50 in data set [2] came to 460 nM. This compound registered an IC50 in data set [3] of 0.069 nM. Also, the “rHep CLint” value in data set [4] was 13 μL/min/1E6. At hFAP (M39-A757), the “hFAP Binding assay k(off)” value was determined as 0.000057 s⁻¹, the “hFAP Binding assay k(on)” value turned out to be 1600000 M⁻¹ s⁻¹ and binding was put at a Kd of 0.036 nM.
